Test results from the PolyMetriX glass transition set.
± gives the standard deviation of the reports.

Structure (SMILES)	glass transition temperature
*Nc1cccc(C(=O)c2ccc(NC(=O)c3cccc(C(=O)c4ccc(C(*)=O)cc4)c3)cc2)c1 (repeat unit)	215.00 °C
*c1ccc(Oc2ccc(N3C(=O)c4ccc(Oc5c(C)cc(-c6cc(C)c(Oc7ccc8c(c7)C(=O)N(*)C8=O)c(C)c6)cc5C)cc4C3=O)cc2)cc1 (repeat unit)	299.00 °C
*Oc1c(C)cc(C(c2cc(C)c(OC(*)=O)c(C)c2)(C(F)(F)F)C(F)(F)F)cc1C (repeat unit)	208.00 °C
*Oc1ccc(CC(NC(=O)CCc2ccc(OC(=O)CCCCCCC(*)=O)cc2)C(=O)OCCCCCCCCCCCC)cc1 (repeat unit)	15.00 °C
*c1ccc2c(c1)C(=O)N(c1ccc(OCCN(CCOc3ccc(N4C(=O)c5ccc(C(*)(C(F)(F)F)C(F)(F)F)cc5C4=O)cc3)c3ccccc3)cc1)C2=O (repeat unit)	170.00 °C
*CC(*)c1ccc(CCCCCCCCCCCCCCCCCC)cc1 (repeat unit)	32.00 °C
*CCCCOc1ccc(-c2ccc(O*)c3ccccc23)c2ccccc12 (repeat unit)	130.00 °C
*/C=C(\C#N)C(=O)OCCCCCCOC(=O)/C(C#N)=C/c1ccc2c(c1)c1cc(*)ccc1n2CCCCCCCCCCCOc1ccc(/C=C/c2ccc([N+](=O)[O-])cc2)cc1 (repeat unit)	87.00 °C
*c1cccc(N2C(=O)c3cccc(Oc4ccc(Sc5ccc(Oc6cccc7c6C(=O)N(*)C7=O)cc5)cc4)c3C2=O)c1 (repeat unit)	231.00 °C
*O[Si](*)(C)CCCOc1ccc(C(=O)Oc2ccc(-c3ccc(OC(=O)c4cc(OCC)c(OCC)c(OCC)c4)cc3)cc2)cc1 (repeat unit)	61.30 °C
*c1ccc2c(c1)C(=O)N(c1cc(OCCCCCCCCCCCC)cc(N3C(=O)c4ccc(C(*)(C(F)(F)F)C(F)(F)F)cc4C3=O)c1)C2=O (repeat unit)	165.00 °C
*CC(*)CNc1ccc([N+](=O)[O-])cc1 (repeat unit)	144.00 °C
*c1cccc(N2C(=O)c3cccc(Oc4c(C)cc(Cc5cc(C)c(Oc6cccc7c6C(=O)N(*)C7=O)c(C)c5)cc4C)c3C2=O)c1 (repeat unit)	269.00 °C
*Oc1ccc(/C=C/C(=O)c2ccc(Oc3ccc(C(C)(C)c4ccc(*)c(C)c4)cc3C)cc2)cc1 (repeat unit)	157.00 °C
*CCCCCCCCOC(=O)NNC(=O)CCCCCCCCC(=O)NNC(=O)O* (repeat unit)	38.00 °C
*C(=O)c1ccc2c(c1)C(=O)N(c1ccc(C(=O)c3ccccc3N3C(=O)c4ccc(*)cc4C3=O)cc1)C2=O (repeat unit)	289.00 °C
*O[Si](C)(C)O[Si](C)(C)O[Si](C)(C)OC(C)CCCCC(*)C (repeat unit)	-94.00 °C
*CC(*)OC(=O)c1cccc(Br)c1 (repeat unit)	57.50 °C
*Oc1ccc(C(=O)c2ccc(Oc3ccc(C(=O)c4ccc(C(=O)c5ccc(*)cc5)cc4)cc3)cc2)cc1 (repeat unit)	169.00 °C
*c1ccc2c(c1)C(=O)N(c1ccc(C(c3ccc(N4C(=O)c5ccc(C(*)(C(F)(F)F)C(F)(F)F)cc5C4=O)cc3)(C(F)(F)F)C(F)(F)F)cc1)C2=O (repeat unit)	315.10 °C
*c1ccc(Oc2cccc(NC(=O)c3cc(C(=O)Nc4cccc(Oc5ccc(-c6nnc(*)o6)cc5)c4)cc(N4C(=O)c5c(Cl)c(Cl)c(Cl)c(Cl)c5C4=O)c3)c2)cc1 (repeat unit)	275.00 °C

Structure (SMILES)	glass transition temperature
*c1ccc(Oc2ccc(-c3ccc(Oc4ccc(N5C(=O)c6ccc(Oc7ccc(C(C)(C)c8ccc(Oc9ccc%10c(c9)C(=O)N(*)C%10=O)cc8)cc7)cc6C5=O)cc4)cc3)cc2)cc1 (repeat unit)	220.00 °C
*C(=O)Nc1cc(NC(=O)c2ccc3c(c2)C(=O)N(c2cccc(N4C(=O)c5ccc(*)cc5C4=O)c2)C3=O)cc(-c2nc3ccccc3[nH]2)c1 (repeat unit)	361.00 °C
*c1ccc2oc3ccc(S(=O)(=O)c4ccc(Oc5ccc(S(*)(=O)=O)cc5)cc4)cc3c2c1 (repeat unit)	290.00 °C
*NNC(=O)c1ccc(C(*)=O)cc1OCCCCC (repeat unit)	234.00 °C
*OC(=O)C(CCSC)NC(=O)CCCCCCCCC(=O)NC(CCSC)C(=O)OC1COC2C(*)COC12 (repeat unit)	61.00 °C
*Oc1ccc(CC(NC(=O)CCc2ccc(OC(*)=O)cc2)C(=O)OCCCCCC)cc1 (repeat unit)	51.50 °C
*CCC1CC(*)C2CCCC12 (repeat unit)	101.00 °C
*CC(*)(C)C(=O)OCCCCCCCCCCCCCCCCCC (repeat unit)	-100.00 °C
*Oc1ccc(/C=C2\CC/C(=C\c3ccc(OC(=O)c4ccc(/N=C/c5ccc(/C=N/c6ccc(C(*)=O)cc6)cc5)cc4)c(OC)c3)C2=O)cc1OC (repeat unit)	140.00 °C
*c1ccc(Oc2ccc(C(c3ccc(Oc4ccc(N5C(=O)c6ccc(Oc7ccc8c(c7)C(=O)N(*)C8=O)cc6C5=O)cc4)cc3)(C(F)(F)F)C(F)(F)F)cc2)cc1 (repeat unit)	264.00 °C
*CCN(CCOC(=O)Nc1ccc(-c2ccc(NC(=O)O*)c(OC)c2)cc1OC)c1ccc(/N=N/c2ccc([N+](=O)[O-])cc2)cc1 (repeat unit)	140.00 °C
*CCN(*)C(=O)CC (repeat unit)	60.00 °C
*CCN(CCNC(=O)c1ccc2c(c1)C(=O)N(*)C2=O)c1ccc(/C=C/c2ccc([N+](=O)[O-])cc2)cc1 (repeat unit)	142.00 °C
*c1ccc(Oc2ccc(N3C(=O)c4cccc(Oc5ccc(Sc6ccc(Oc7cccc8c7C(=O)N(*)C8=O)cc6)cc5)c4C3=O)cc2)cc1 (repeat unit)	234.00 °C
*CC(*)C(=O)OCCCCC (repeat unit)	-57.00 °C
*CCOCCOc1cccc(NC(=O)c2ccc(C(=O)Nc3cccc(O*)c3)cc2)c1 (repeat unit)	140.00 °C
*c1ccc(C2(c3ccc(-c4cc(-c5ccccc5)c5cc(Oc6ccc7nc(*)cc(-c8ccccc8)c7c6)ccc5n4)cc3)c3ccccc3-c3ccccc32)cc1 (repeat unit)	310.00 °C
*CC(*)(C)C(=O)OCCC1CC[N+](C)(CCCCCCOc2ccc(/N=N/c3ccc([N+](=O)[O-])cc3)cc2)CC1 (repeat unit)	57.80 °C
*OC(=O)Oc1ccc(C(=O)Oc2ccc(OC(=O)OC3COC4C(*)COC34)cc2)cc1 (repeat unit)	115.00 °C
*CCCCCCCCCCn1c2ccccc2c2cc(/C=C(\C#N)C(=O)OCCCCCCOC(=O)/C(C#N)=C/c3ccc4c(c3)c3ccccc3n4*)ccc21 (repeat unit)	94.50 °C
*C(=O)c1ccc2c(c1)/C(=N\c1cccc(Oc3cccc(Oc4cccc(/N=C5/OC(=O)c6ccc(*)cc65)c4)c3)c1)OC2=O (repeat unit)	190.00 °C

Structure (SMILES)	glass transition temperature
*/C(C)=C(/*)[Si](C)(C)CCCCCC (repeat unit)	200.00 °C
*CCCN(*)C(=O)CC (repeat unit)	8.00 °C
*c1c(C)cc(Cc2cc(C)c(N3C(=O)c4ccc(Oc5ccc6ccc(Oc7ccc8c(c7)C(=O)N(*)C8=O)cc6c5)cc4C3=O)c(C)c2)cc1C (repeat unit)	272.00 °C
*Nc1cccc2c1C(=O)c1cccc(N[Se]*)c1C2=O (repeat unit)	52.00 °C
*CCOC(=O)O* (repeat unit) [Poly(ethylene carbonate)]	10.92 ± 8.4 °C
*CC(F)(F)C(F)(F)C(F)(F)C(F)(F)COC(=O)NCCCCCCNC(=O)O* (repeat unit)	-2.00 °C
*/C=C(/*)c1cccc[c]1[Ge]([CH3])([CH3])[CH3] (repeat unit)	180.00 °C
*/C=C/C1CC(*)C(C#N)(CC)C1 (repeat unit)	134.00 °C
*Oc1cccc(NC(=O)c2cc(C(=O)Nc3ccc(*)cc3)cc(C(F)(F)C(F)(F)C(F)(F)C(F)(F)C(F)(F)C(F)(F)C(F)(F)C(F)(F)F)c2)c1 (repeat unit)	210.00 °C
*c1ccc2c(c1)C(=O)N(c1cccc(C(=O)Nc3ccc(C(c4ccc(NC(=O)c5cccc(N6C(=O)c7ccc(C(*)(C(F)(F)F)C(F)(F)F)cc7C6=O)c5C)cc4)(C(F)(F)F)C(F)(F)F)cc3)c1C)C2=O (repeat unit)	250.00 °C
*Nc1ccc(NC(=O)c2cc(-c3ccc(C(=O)OC)c(C(*)=O)c3)ccc2C(=O)OC)cc1 (repeat unit)	234.20 °C
*CCCCCCCCCNC(=O)CCCCCCCCCCCCCCCCCCC(=O)N* (repeat unit)	42.00 °C
*c1ccc2oc(-c3ccc(C(c4ccc(-c5nc6cc(C(*)(c7ccccc7)C(F)(F)F)ccc6o5)cc4)(C(F)(F)F)C(F)(F)F)cc3)nc2c1 (repeat unit)	334.00 °C
*c1ccc(-c2ccc(-c3cc(-c4ccccc4)c4cc5c(-c6ccccc6)cc(*)nc5cc4n3)cc2)cc1 (repeat unit)	392.00 °C
*O[Si](*)(C)CC[Si](C)(C)O[Si](C)(C)CCCOc1cc(OC(=O)c2ccc(OCCCC)cc2)ccc1/N=N/c1ccc(OCCCC)cc1 (repeat unit)	-4.00 °C
*/C(=C/c1cc(OC)c(/C=C(\c2ccccc2)c2ccc(-c3ccc(*)cc3)cc2)cc1OC)c1ccccc1 (repeat unit)	223.00 °C
*c1ccc(-c2ccc(-c3ccc4nc(Oc5cc(-c6ccccc6)c6cc(*)ccc6n5)cc(-c5ccccc5)c4c3)cc2)cc1 (repeat unit)	308.00 °C
*Oc1ccc2c(c1)C(C)(c1ccc(OC(=O)c3cccc(C(*)=O)c3)cc1)CC2(C)C (repeat unit)	230.50 °C
*Oc1ccc(S(=O)(=O)c2ccc(OC(=O)OC3C(C)(C)C(OC(*)=O)C3(C)C)cc2)cc1 (repeat unit)	162.00 °C
*c1cccc(-c2cccc(C(F)(F)C(F)(F)C(*)(F)F)c2)c1 (repeat unit)	45.00 °C
*Nc1cccc(NC(=O)Cc2cc(C)c(CC(*)=O)cc2C)c1 (repeat unit)	249.00 °C
